In patent US12042478B2, “(R)-2-[(2H-1,3-benzodioxol-5-yl)methyl]pyrrolidine and processes for preparation, compositions and uses thereof” (Pharmala Biotech Inc., priority 2022, dated 2024):
“Also recorded” adds a separate entry of the source.

Tested on: C57 and BTBR mice
Assay: Conditioned place preference
Assay type: in vivo, mouse
Conditions: 1.0 mg/kg, x3 pairings, C57 mice
Procedure: The same 2-compartment chambers as described above in the social preference studies for conditioned place preference. For these studies, compartments are differentiated by floor texture (rough black plastic vs steel punch plate) and wall pattern (vertical vs. horizontal stripes.) An initial preference/habituation test was first run where mice were able to freely traverse the apparatus for 30 minutes. The following day, mice were assigned to receive saline in one compartment and drug in the other. Saline pairings occurred in the morning, drug pairings occurred in the afternoon, and were separated by at least 4 hours, during which time mice returned to their home cages. Three such pairings were performed, where mice were injected, returned to the home cage for a 15 min pretreatment period, then confined to the injection-appropriate compartment for 30 minutes. Half the subjects (within strain) received drug pairings on the plastic floor+vertical stripes side, and the other half received drug pairings on the punch plate floor+horizontal stripes side. […] The post-conditioning preference test was identical to the initial preference/habituation session, where mice were freely able to traverse the apparatus for 30 minutes. Time spent in each compartment was recorded, and expressed as a preference score for the drug paired side (calculated as time spent in that compartment during the post-test—time spent there during the pre-test.) All preference and conditioning sessions were conducted under the same low light conditions as in the social preference tests.

Row | Structure (SMILES) | place conditioning (place preference)
1 | c1cc2c(cc1C[C@H]1CCCN1)OCO2 [(R)-I, (R)-2-[(2H-1,3-benzodioxol-5-yl)methyl]pyrrolidine] | neither 1.0 mg/kg (R)-I nor 1.0 mg/kg (S)-I elicited significant place preferences; also recorded: negligible effects
2 | c1cc2c(cc1C[C@@H]1CCCN1)OCO2 [(S)-I, (S)-2-[(2H-1,3-benzodioxol-5-yl)methyl]pyrrolidine] | neither 1.0 mg/kg (R)-I nor 1.0 mg/kg (S)-I elicited significant place preferences; also recorded: negligible effects
